The text below walks through data of patent US20150037285A1, “METHODS FOR EFFICIENT TRANSFER OF VIABLE AND BIOACTIVE MICROBIOTA” (NEW YORK UNIVERSITY, priority 2013, published 2015).

The subject of the experiment is C57BL/6J mice. The experiment can be described thus: Sub-therapeutic antibiotic treatment (STAT) in drinking water, body composition versus Control drinking water. Conditions: STAT penicillin versus Control drinking water. The experiment is classed as in vivo. The source says: C57BL/6J (Jackson Labs, Bar Harbor Me.) mice either received no antibiotics (control) or continuous subtherapeutic antibiotic treatment (STAT) with penicillin in their drinking water. Mice were weaned at 4 weeks onto normal chow (13.2% fat, 5053 PicoLab Rodent Diet 20, LabDiet, Brentwood, Mo.) then changed to a high fat diet (45% kcal from fat, D12451, Research Diets, New Brunswick, N.J.) at 6 weeks of life. At 18 weeks of age, the three animals with weight at or closest to the median were selected as cecal content donors from each group (Control, n=7; STAT, n=8). Donor mice were humanely euthanized, and the proximal ⅓ of the cecum was aseptically removed and immediately (less than 1 minute) placed in reduced (no oxygen), sterile liquid dental transport media (Anaerobe Systems, Morgan Hill Calif.). The cecal samples in anaerobic transport media were brought into an anaerobic chamber within an hour of collection (Sheldon, Cornelius Oreg.). The three cecal samples from each group (STAT or Control) were pooled, and reduced, sterile saline was added to a final volume of 8 mL, of which 3 mL was used for microbiota transfer. To maintain viability of anaerobic organisms, vials containing the inoculum were not opened. […]
Mice were fed normal chow, then switched to high fat diet at 6 weeks of age. […] Microbiota recipient mice were given a high fat diet and monitored for 5 weeks. […]

As to penicillin, the Body composition entry is given as “changes in body composition”.
